Measurements from US10611740B2, “Aryl dihydro-2H-benzo[b][1,4]oxazine sulfonamide and related compounds for use as agonists of RORγ and the treatment of disease” (Lycera Corporation, priority 2015, dated 2020).

Key:
[1] = target: T1, Gal4-RORγ-LBD (Homo sapiens, UniProt P51449); assay: Gal4-RORγ Luciferase Reporter Assay in HEK-293T Cells; format: cell-based; conditions: HEK-293 cells
T1 construct: expressed in transfected cells; host or cells: HEK-293 cells (pcDNA3.1neo plasmid)
T1 sequence (P51449 269-508 limits assumed): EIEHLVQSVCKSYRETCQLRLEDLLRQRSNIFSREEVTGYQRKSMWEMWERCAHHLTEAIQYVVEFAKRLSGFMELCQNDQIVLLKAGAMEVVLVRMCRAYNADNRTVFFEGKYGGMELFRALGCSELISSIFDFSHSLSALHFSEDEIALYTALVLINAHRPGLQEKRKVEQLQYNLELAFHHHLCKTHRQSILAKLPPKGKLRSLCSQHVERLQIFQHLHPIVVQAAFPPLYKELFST
Experimental: Assay procedures and results are described below.
In the following protocol, HEK-293 cells were transfected with a construct comprising the Gal4 DNA binding domain fused to the ligand binding domain of RORγ (Gal4-RORγ-LBD) in a pcDNA3.1neo plasmid, and also with a reporter construct comprising pGL4.31 Gal4-luciferase (Promega). Control cells were prepared similarly using empty pcDNA3.1neo and pGL4.31 vectors.
Trans-IT reagent (Mirus, 60 μL) at room temperature was added drop wise to OptiMEM (Invitrogen, 1.5 ml). This reagent mixture was mixed by inversion then incubated for 5 to 30 minutes at room temperature. It then was added to a solution of both expression vectors (5 μg each), mixed, and incubated at room temperature for about 20 minutes. HEK-293 cells were harvested from incubation flasks by removing the media, treating with TrypLE Express (Invitrogen), and incubating until the cells detached from the bottom of the flask (approximately 2-5 minutes). 10 Million cells were collected by centrifugation and re-suspended in 10 mL of Dulbecco's Modified Eagle Medium, High Glucose (DMEM, Invitrogen) containing 10% Fetal Bovine Serum and 100 IU each of penicillin and streptomycin. The re-suspended cells and the transfection mixture were added to a T75 flask, mixed and incubated overnight at 37° C. and 5% CO2.
The cells were harvested as described above, counted, and centrifuged to obtain the desired number of cells, then re-suspended in complete growth media at 0.75×10^6 cells/mL. The RORγ antagonist, ursolic acid, was added to the cells at a final concentration of 2 μM. Cells were plated at 20 μL of cell suspension/well (10,000-15,000 cells/well) in white tissue culture treated 384 well plates. Test compounds were dissolved at 10 mM in DMSO then diluted into complete growth medium to 5× the final intended test concentration. These drug stock solutions, 5 μL/well were added to the tissue culture plate. The final DMSO concentration was 0.2%. The plates were briefly centrifuged then incubated overnight at 37° C. and 5% CO2. To conduct the assay, the tissue culture plates were allowed to equilibrate to room temperature and One-Glo luciferase reagent (Promega, 25 μL/well) was added. The plates were briefly centrifuged then incubated at room temperature for 10 minutes. The luciferase intensity was read on an Envision plate reader (Perkin Elmer). […] The luciferase signal in the absence of ursolic acid or test compound is defined at 100. The Max Response is the upper plateau in the signal as determined by line-fit using a 4-parameter logistic model in PRISM (GraphPad).

[2] = target: T2, RORγ-LBD (Homo sapiens, UniProt P51449); assay: RORγ-Ligand Binding Domain (LBD) TR-FRET Assay; format: biochemical;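 for TR-FRET Assay Max Response: 665/615 nm ratio relative to signal without ursolic acid or compound set at 100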
T2 construct: made in house; host or cells: SF9 cells (baculovirus)
T2 sequence (P51449 269-508 limits assumed): T1 sequence (P51449 269-508 limits assumed)
Procedure, shortened: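 This TR-FRET coactivator assay pairs baculovirus-expressed His-RORγ-LBD (~3 nM final) with biotin-SRC1 LXXLL peptide at 200 nM final in pH 7.0 Tris/KCl/EDTA/DTT/BSA buffer.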

[3] = luciferase reporter, with 2 μM ursolic acid

Row | Compound | EC50 [1, 3] | Gal4-RORγ Assay Max Response [1, 3] | EC50 [2] | TR-FRET Assay Max Response [2] | EC50 ([1]; 2 μM ursolic acid) | Gal4-RORγ Assay Max Response ([1]; 2 μM ursolic acid)
1 | O=C(O)CC[C@H]1CN(S(=O)(=O)c2cccc(C(F)(F)F)c2)c2cc(-c3cccc(F)c3F)ccc2O1 [Compound 1, (S)-3-(6-(2,3-difluorophenyl)-4-((3-(trifluoromethyl)phenyl)sulfonyl)-3,4-dihydro-2H-benzo[b][1,4]oxazin-2-yl)propanoic acid] | < 500 nM | *** (The symbol “***” indicates a value in the range of greater than 150 to 200) | < 500 nM | *** (The symbol “***” indicates a value in the range of greater than 150 to 200) | – | –
2 | COc1cc(F)cc(-c2ccc3c(c2)N(S(=O)(=O)c2cccc(C(F)(F)F)c2)C[C@H](CC2(C(=O)O)CCOCC2)O3)c1F [Compound 78S, (S)-4-((6-(2,5-difluoro-3-methoxyphenyl)-4-((3-(trifluoro-methyl)phenyl)sulfonyl)-3,4-dihydro-2H-benzo[b][1,4]oxazin-2-yl)methyl)tetrahydro-2H-pyran-4-carboxylic acid] | – | – | – | – | < 500 nM | ** (The symbol “**” indicates a value in the range of greater than 90 to 150)
3 | O=C(O)C1(C[C@H]2CN(S(=O)(=O)c3cccc(C(F)(F)F)c3)c3cc(-c4cc(F)cc(F)c4F)ccc3O2)CCOCC1 [Compound 78T, (S)-4-((4-((3-(trifluoromethyl)-phenyl)sulfonyl)-6-(2,3,5-trifluorophenyl)-3,4-dihydro-2H-benzo[b][1,4]oxazin-2-yl)methyl)tetrahydro-2H-pyran-4-carboxylic acid] | – | – | – | – | < 500 nM | ** (The symbol “**” indicates a value in the range of greater than 90 to 150)
4 | COc1cc(F)c(F)c(-c2ccc3c(c2)N(S(=O)(=O)c2cccc(C(F)(F)F)c2)C[C@H](CC2(C(=O)O)CCOCC2)O3)c1 [Compound 78U, (S)-4-((6-(2,3-difluoro-5-methoxyphenyl)-4-((3-(trifluoromethyl)phenyl)sulfonyl)-3,4-dihydro-2H-benzo[b][1,4]oxazin-2-yl)methyl)tetrahydro-2H-pyran-4-carboxylic acid] | – | – | – | – | < 500 nM | ** (The symbol “**” indicates a value in the range of greater than 90 to 150)
5 | O=C(O)C1(C[C@H]2CN(S(=O)(=O)c3cccc(C(F)(F)F)c3)c3cc(-c4cc(F)cc(OC(F)F)c4F)ccc3O2)CCOCC1 [Compound 78V, (S)-4-((6-(3-(difluoromethoxy)-2,5-difluorophenyl)-4-((3-(trifluoromethyl)phenyl)sulfonyl)-3,4-dihydro-2H-benzo[b][1,4]oxazin-2-yl)methyl)tetrahydro-2H-pyran-4-carboxylic acid] | – | – | – | – | < 500 nM | ** (The symbol “**” indicates a value in the range of greater than 90 to 150)
6 | O=C(O)C1(C[C@H]2CN(S(=O)(=O)c3cccc(C(F)(F)F)c3)c3cc(-c4cc(Cl)cc(F)c4F)ccc3O2)CCOCC1 [Compound 78W, (S)-4-((6-(5-chloro-2,3-difluorophenyl)-4-((3-(trifluoromethyl)phenyl)sulfonyl)-3,4-dihydro-2H-benzo[b][1,4]oxazin-2-yl)methyl)tetrahydro-2H-pyran-4-carboxylic acid] | – | – | – | – | < 500 nM | ** (The symbol “**” indicates a value in the range of greater than 90 to 150)
7 | O=C(O)CO[C@@H]1Cc2ccc(-c3cc(F)ccc3F)cc2N(S(=O)(=O)c2cccc(C(F)(F)F)c2)C1 [Compound 82, (R)-2-((7-(2,5-difluorophenyl)-1-((3-(trifluoromethyl)phenyl)sulfonyl)-1,2,3,4-tetrahydroquinolin-3-yl)oxy)acetic acid] | – | – | – | – | 500 to 5000 nM | ** (The symbol “**” indicates a value in the range of greater than 90 to 150)
8 | CC(C)(O[C@@H]1Cc2ccc(-c3cc(F)ccc3F)cc2N(S(=O)(=O)c2cccc(C(F)(F)F)c2)C1)C(=O)O [Compound 83B, (R)-2-((7-(2,5-difluorophenyl)-1-((3-(trifluoromethyl)phenyl)sulfonyl)-1,2,3,4-tetrahydroquinolin-3-yl)oxy)-2-methylpropanoic acid] | – | – | – | – | 500 to 5000 nM | ** (The symbol “**” indicates a value in the range of greater than 90 to 150)
9 | CC(C)(O[C@H]1Cc2ccc(-c3cc(F)ccc3F)cc2N(S(=O)(=O)c2cccc(C(F)(F)F)c2)C1)C(=O)O [Compound 83C, (S)-2-((7-(2,5-difluorophenyl)-1-((3-(trifluoromethyl)phenyl)sulfonyl)-1,2,3,4-tetrahydroquinolin-3-yl)oxy)-2-methylpropanoic acid] | – | – | – | – | 500 to 5000 nM | ** (The symbol “**” indicates a value in the range of greater than 90 to 150)
10 | CC(C)(O[C@@H]1Cc2ccc(-c3cc(F)cc(OC(F)F)c3)cc2N(S(=O)(=O)c2cccc(C(F)(F)F)c2)C1)C(=O)O [Compound 83D, (R)-2-((7-(3-(difluoromethoxy)-5-fluorophenyl)-1-((3-(trifluoromethyl)phenyl)sulfonyl)-1,2,3,4-tetrahydroquinolin-3-yl)oxy)-2-methylpropanoic acid] | – | – | – | – | 500 to 5000 nM | ** (The symbol “**” indicates a value in the range of greater than 90 to 150)
11 | O=C(O)CO[C@@H]1Cc2ccc(-c3cc(F)cc(OC(F)F)c3)cc2N(S(=O)(=O)c2cccc(C(F)(F)F)c2)C1 [Compound 83E, (R)-2-((7-(3-(difluoromethoxy)-5-fluorophenyl)-1-((3-(trifluoro-methyl)phenyl)sulfonyl)-1,2,3,4-tetrahydroquinolin-3-yl)oxy)acetic acid] | – | – | – | – | 500 to 5000 nM | * (The symbol “*” indicates a value in the range of 25 to 90)
12 | CC(C)(O[C@H]1Cc2ccc(-c3cc(F)cc(OC(F)F)c3)cc2N(S(=O)(=O)c2cccc(C(F)(F)F)c2)C1)C(=O)O [Compound 83F, (S)-2-((7-(3-(difluoromethoxy)-5-fluorophenyl)-1-((3-(trifluoromethyl)phenyl)sulfonyl)-1,2,3,4-tetrahydroquinolin-3-yl)oxy)-2-methylpropanoic acid] | – | – | – | – | 500 to 5000 nM | * (The symbol “*” indicates a value in the range of 25 to 90)
13 | O=C(O)[C@]1(C[C@H]2CN(S(=O)(=O)c3cccc(C(F)(F)F)c3)c3cc(-c4cc(F)cc(OC(F)F)c4)ccc3O2)C[C@](O)(CO)C1 [Compound 87, (1r,3R)-1-(((S)-6-(3-(difluoromethoxy)-5-fluorophenyl)-4-((3-(trifluoromethyl)phenyl)sulfonyl)-3,4-dihydro-2H-benzo[b][1,4]oxazin-2-yl)methyl)-3-hydroxy-3-(hydroxymethyl)cyclobutane-1-carboxylic acid] | – | – | – | – | 500 to 5000 nM | ** (The symbol “**” indicates a value in the range of greater than 90 to 150)
14 | O=C(O)[C@]1(C[C@H]2CN(S(=O)(=O)c3cccc(C(F)(F)F)c3)c3cc(-c4cc(F)ccc4F)ccc3O2)C[C@](O)(CO)C1 [Compound 89D, (1r,3R)-1-(((S)-6-(2,5-difluoro-phenyl)-4-((3-(trifluoromethyl)-phenyl)sulfonyl)-3,4-dihydro-2H-benzo[b][1,4]oxazin-2-yl)methyl)-3-hydroxy-3-(hydroxymethyl)-cyclobutane-1-carboxylic acid] | – | – | – | – | 500 to 5000 nM | ** (The symbol “**” indicates a value in the range of greater than 90 to 150)
15 | O=C(O)[C@]1(C[C@H]2CN(S(=O)(=O)c3cccc(C(F)(F)F)c3)c3cc(-c4cc(F)ccc4F)ccc3O2)C[C@@](O)(CO)C1 [Compound 89E, (1s,3S)-1-(((S)-6-(2,5-difluoro-phenyl)-4-((3-(trifluoromethyl)-phenyl)sulfonyl)-3,4-dihydro-2H-benzo[b][1,4]oxazin-2-yl)methyl)-3-hydroxy-3-(hydroxymethyl)-cyclobutane-1-carboxylic acid] | – | – | – | – | 500 to 5000 nM | ** (The symbol “**” indicates a value in the range of greater than 90 to 150)
